Data: patent US20140357512A1, “HISTONE DEACETYLASE (HDAC) BIOMARKERS IN MULTIPLE MYELOMA” (priority 2013, published 2014)

Tested on: human myeloma cell line MM.1S
Experiment: SILAC acetylated-lysine peptide profiling, HDAC inhibitor vs DMSO (light/heavy ratio)
Format: cell-based
Excerpt: An embodiment of the invention comprises utilizing the SILAC method in order to quantitate changes in protein expression between two or more populations of cells. The SILAC method is a technique based on mass spectrometry that detects differences in protein abundance among samples using non-radioactive isotopic labeling. The SILAC method is known in the art, and described in detail in Ong et al., “Stable Isotope Labeling by Amino Acids in Cell Culture, SILAC, as a Simple and Accurate Approach to Expression Proteomics”, Molecular & Cellular Proteomics, vol. 1, pp. 376-386 (2002), which is incorporated herein by reference in its entirety.
Briefly, the SILAC method involves growing two populations of cells in cell culture. The first population of cells is grown in growth media containing normal amino acids (“normal media”). The second population of cells is grown in media lacking a standard essential amino acid (such as lysine), but is then supplemented with a non-radioactive, isotopically labeled form of that essential amino acid (such as lysine labeled with ^13C atoms, rather than normal ^12C atoms), which is called “heavy media”. When the two populations of cells are each growing in the medium, they incorporate the amino acids into all of their proteins. The growth of cells maintained in the heavy media is no different from that in normal media. All peptides containing the heavy amino acids are heavier than their normal counterparts. The cells from each of the two populations of cells are lysed. The lysates from each of the two cell populations are then combined. The combined cell lysates are then analyzed by mass spectrometry. Pairs of chemically identical peptides of different stable isotope composition can be differentiated in a mass spectrometer due to their difference in mass. The ratio of peak intensities in the mass spectrum for such peptide pairs reflects the abundance ratio for the two proteins.
This example describes SILAC studies that were performed to compare the effects of three different HDAC inhibitors (Compound A, Compound B, and tubastatin A) to a control on a human multiple myeloma cell line. The HDAC inhibitors were also compared amongst themselves to determine differences in their effects.
A human myeloma cell line MM.1S was grown using either ^12C (light) or ^13C (heavy) lysine containing culture medium. The “heavy” cells were treated with DMSO as the control, and the “light” cells were treated with a single HDAC inhibitor at 37° C. for 6 hours. The heavy and light cells were lysed, and the lysates were mixed in 1:1 ratio and digested with the protease trypsin. The acetylated lysine containing peptides (due to the action of the HDAC inhibitor) in the digested peptide pool were captured by a non-specific anti-acetylated lysine antibody cocktail (the antibodies identify both light and heavy acetylated peptides), and subjected to mass spectrometry analysis in order to identify thousands of individual peptides.
Thousands of peptides were identified in pairs (^12C and ^13C) due to their known mass differences. The amino acid sequence and quantitative ratio (Light/Heavy) of a given peptide in two differentially treated cell lysates were then determined and annotated with their possible protein (gene) sources.
As stated above, three HDAC inhibitors (Compound A, Compound B, and Tubastatin A) were used. Thus, the SILAC method was performed three times, with a different HDAC inhibitor compared to a control each time. Accordingly, there are three pairs of quantitative data in the table below, i.e., Compound A:DMSO, Compound B:DMSO, and Tubastatin A:DMSO. A cut-off of 1.30 fold of change (increase or decrease) was then used to determine “changed” or “+” in the table, and any peptides with a fold of change less than 1.3 fold were determined to be “unchanged” or “0” in the table. Those peptides that were not identified were marked as “NA” in the table. […]

Compound: O=C(NO)c1cnc(NC2(c3cccc(F)c3)CCCCC2)nc1 [Compound B, 2-((1-(3-fluorophenyl)cyclohexyl)amino)-N-hydroxypyrimidine-5-carboxamide]
- L/H ratio of acetylated peptide LDHLAEK(ac)FR (SEQ ID NO: 20) (ACTN1 [398], log 2 scale, drug vs DMSO): 0.00
- L/H ratio of acetylated peptide […](ac)FVYQAK (SEQ ID NO: 126) (ADAR [757], log 2 scale, drug vs DMSO): 0.00
- light to heavy ratio (L/H ratio) of acetylated peptide, log 2 scale (ADINTK(ac)WAATR (SEQ ID NO: 202), Ribosomal protein L14 variant [85], RPL14): 0.00
- light to heavy ratio (L/H ratio) of acetylated peptide, log 2 scale (ADK(ac)DYHFK (SEQ ID NO: 191), Isoform 2 of Nucleophosmin [27], NPM1): 0.00
- light to heavy ratio (L/H ratio) of acetylated peptide TTLLYK(ac)LK (SEQ ID NO: 624) (ADP-ribosylation factor-like protein 11 [31], gene ARL11, inhibitor:DMSO): 0.00 log 2
- light to heavy ratio (L/H ratio) of acetylated peptide IFK(ac)SDGLR (SEQ ID NO: 280) (ADP/ATP translocase 1 [166], SLC25A4, drug:DMSO): 0.00 log 2
- light to heavy ratio (L/H ratio) of acetylated peptide ITK(ac)SDGIR (SEQ ID NO: 587) (ADP/ATP translocase 3 [166], gene SLC25A6, inhibitor:DMSO): 0.00 log 2
- L/H ratio of acetylated peptide (AELSK(ac)LVIVAK (SEQ ID NO: 370), UPF0556 protein C19orf10 [161], C19orf10): 1.00 log 2
- L/H ratio of acetylated peptide HLSDSINQK(ac)HFEQAIER (AFG3L2 [543], log 2 scale, drug vs DMSO): 0.00
- L/H ratio of acetylated peptide (AFQLK(ac)SR (SEQ ID NO: 439), ribonucleoprotein PTB-binding 1 [579], RAVER1): −0.89 log 2
- light to heavy ratio (L/H ratio) of acetylated peptide, log 2 scale (AFYK(ac)SFSK (SEQ ID NO: 170), Endoplasmin [360], HSP90B1): 0.00
- L/H ratio of acetylated peptide (AK(ac)FESMAEEK (SEQ ID NO: 402), Hematopoietic lineage cell-specific protein [241], HCLS1): 1.00 log 2
- light to heavy ratio (L/H ratio) of acetylated peptide, log 2 scale (ALDLNLK(ac)HQILPK (SEQ ID NO: 248), Cytochrome b-c1 complex subunit 7 [72], UQCRB): 0.00
- L/H ratio of acetylated peptide LK(ac)[…] (SEQ ID NO: 21) (ANP32B [101], log 2 scale, drug vs DMSO): 0.00
- L/H ratio of acetylated peptide […](ac)SLYGK (SEQ ID NO: 22) (ANXA6 [63], log 2 scale, drug vs DMSO): 0.00
- L/H ratio of acetylated peptide LGTDESK(ac)FNAVLCSR (SEQ ID NO: 7) (ANXA11 [478], log 2 scale, drug vs DMSO): 0.50
- L/H ratio of acetylated peptide MYFDK(ac)[…] (SEQ ID NO: 23) (ATAD3A [491], log 2 scale, drug vs DMSO): 0.00
- L/H ratio of acetylated peptide (ATAEEMTK(ac)YHSDEYIK (SEQ ID NO: 403), Histone deacetylase 2[161], HDAC2): 0.78 log 2
- L/H ratio of acetylated peptide IVEYEK(ac)EMEK (SEQ ID NO: 24) (ATP5H [117], log 2 scale, drug vs DMSO): 0.00
- L/H ratio of acetylated peptide YYNK(ac)YINVK (SEQ ID NO: 12) (ATP5J2 [54], log 2 scale, drug vs DMSO): −0.43
- light to heavy ratio (L/H ratio) of acetylated peptide QNK(ac)LEQVEK (SEQ ID NO: 271) (ATP synthase subunit O mitochondrial [54], ATP50, drug:DMSO): 0.00 log 2
- light to heavy ratio (L/H ratio) of acetylated peptide ISEQSDAK(ac)LK (SEQ ID NO: 600) (ATP synthase subunit alpha mitochondrial [539], gene ATP5A1, inhibitor:DMSO): 0.00 log 2
- light to heavy ratio (L/H ratio) of acetylated peptide […](ac)ETIAK (SEQ ID NO: 307) (ATP synthase subunit b mitochondrial [233], ATP5F1, drug:DMSO): 0.00 log 2
- light to heavy ratio (L/H ratio) of acetylated peptide […](ac)QLTVK (SEQ ID NO: 279) (ATP synthase subunit g mitochondrial [66], ATP5L, drug:DMSO): 0.00 log 2
- light to heavy ratio (L/H ratio) of acetylated peptide ELDPIQK(ac)LFVDK (SEQ ID NO: 365) (ATP synthase-coupling factor 6 mitochondrial [41], ATP5J, drug:DMSO): −0.48 log 2
- light to heavy ratio (L/H ratio) of acetylated peptide FEDPK(ac)FEVIEKPQA (SEQ ID NO: 325) (ATP synthase-coupling factor 6 mitochondrial [99], ATP5J, drug:DMSO): −0.50 log 2
- light to heavy ratio (L/H ratio) of acetylated peptide, log 2 scale (AVEEK(ac)[…] (SEQ ID NO: 172), 78 kDa glucose-regulated protein [601], HSPA5): 0.00
- L/H ratio of acetylated peptide (AVSMDNSNK(ac)YTK (SEQ ID NO: 396), Forkhead box protein O3 [259], FOXO3): 0.45 log 2
- L/H ratio of acetylated peptide (AYHLQK(ac)STCGK (SEQ ID NO: 443), 60S ribosomal protein L37 [31], RPL37): 0.42 log 2
- light to heavy ratio (L/H ratio) of acetylated peptide NAYVWTLK(ac)GR (SEQ ID NO: 361) (Actin-related protein 2/3 complex subunit 1B [82], ARPC1B, ARPC1A, drug:DMSO): −1.00 log 2
- light to heavy ratio (L/H ratio) of acetylated peptide VFDPQNDK(ac)[…] (SEQ ID NO: 362) (Actin-related protein 2/3 complex subunit 3 [155], ARPC3, drug:DMSO): 0.45 log 2
- light to heavy ratio (L/H ratio) of acetylated peptide AFAK(ac)ELFLGK (SEQ ID NO: 627) (Acyl-CoA dehydrogenase family member 9 mitochondrial [41], gene ACAD9, inhibitor:DMSO): 0.00 log 2
